{"source": "ChEMBL document CHEMBL4831480", "about": "“Identification of First-in-Class Inhibitors of Kallikrein-Related Peptidase 6 That Promote Oligodendrocyte Differentiation” (J Med Chem, 2021)", "tested_on": "Cortical neurone", "experiment": "Cytotoxicity against Swiss mouse cortical cells assessed as cell viability at 25 uM incubated for 24 hrs by XTT assay", "type": "cell-based", "data": [{"smiles": "CC(C)(C)c1ccc(O)c(C(=O)Nc2ccc(CN)cc2)c1.Cl", "values": [{"measurement": "Activity", "result": "Toxic"}]}]}
